# Read-outs that look alike come from different tables or passages of the source.
# Experiments:
# hGLP1R = target: T1, hGLP1R (Homo sapiens, UniProt P43220); assay: hGLP1R CreLuc assay in 0.5% and 100% plasma (HEK-293 CRE-luciferase reporter cells); type: cell-based; conditions: HEK-293 reporter cells
# T1 construct: expressed in transfected cells; host or cells: HEK-293 CRE-luciferase reporter cells
# hGIPR = target: T2, hGIPR (Homo sapiens, UniProt P48546); assay: hGIPR CreLuc assay in 0.5% and 100% plasma (CHO CRE-luciferase reporter cells); type: cell-based
# T2 construct: expressed in transfected cells; host or cells: CHO CRE-luciferase reporter cells
# T2 sequence (P48546 22-466): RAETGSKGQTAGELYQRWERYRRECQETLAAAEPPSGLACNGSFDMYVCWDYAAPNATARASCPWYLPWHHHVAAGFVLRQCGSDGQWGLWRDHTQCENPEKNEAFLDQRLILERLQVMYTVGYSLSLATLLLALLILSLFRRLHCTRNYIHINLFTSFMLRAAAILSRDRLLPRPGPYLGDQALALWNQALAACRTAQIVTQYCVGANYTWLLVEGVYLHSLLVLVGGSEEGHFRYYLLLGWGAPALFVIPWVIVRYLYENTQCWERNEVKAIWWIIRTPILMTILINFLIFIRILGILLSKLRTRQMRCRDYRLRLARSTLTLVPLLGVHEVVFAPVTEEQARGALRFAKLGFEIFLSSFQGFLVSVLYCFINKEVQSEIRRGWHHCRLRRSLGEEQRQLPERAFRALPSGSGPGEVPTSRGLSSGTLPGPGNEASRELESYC
# hNPY2R = target: T3, hNPY2R (Homo sapiens, UniProt P49146); assay: hNPY2R CreLuc assay in 0.5% and 100% plasma (HEK-293 CRE-luciferase reporter cells); type: cell-based; conditions: HEK-293 reporter cells
# T3 construct: expressed in transfected cells; host or cells: HEK-293 CRE-luciferase reporter cells
# T3 sequence (P49146 1-381): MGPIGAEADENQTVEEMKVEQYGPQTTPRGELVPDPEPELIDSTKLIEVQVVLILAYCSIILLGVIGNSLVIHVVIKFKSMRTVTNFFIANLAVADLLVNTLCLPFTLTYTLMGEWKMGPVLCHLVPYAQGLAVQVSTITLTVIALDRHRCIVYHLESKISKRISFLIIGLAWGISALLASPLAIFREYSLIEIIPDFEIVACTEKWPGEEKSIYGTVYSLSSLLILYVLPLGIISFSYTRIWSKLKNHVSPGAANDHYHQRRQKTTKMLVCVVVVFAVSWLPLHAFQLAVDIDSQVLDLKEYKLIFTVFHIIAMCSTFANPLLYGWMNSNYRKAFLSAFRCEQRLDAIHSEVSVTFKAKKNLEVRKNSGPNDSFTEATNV
# [1] = Solubility in 0.1 M phosphate buffer at pH 7; type: physicochemical; conditions: 0.1 M phosphate buffer at pH 7, 10 mg/mL final peptide concentration, shaking 2 hours at room temperature, peptides as TFA-salts; measured sample pH 6.5-7.0
# [2] = 0.5% human plasma, read-out: hGLP1R 0.5% hP
# [3] = 0.5% human plasma, read-out: hGIPR 0.5% hP
# [4] = 0.5% human plasma, read-out: hNPY2R 0.5% hP
# [5] = 100% human plasma, read-out: hNPY2R 100% hP
# T1 sequence (P43220 24-463): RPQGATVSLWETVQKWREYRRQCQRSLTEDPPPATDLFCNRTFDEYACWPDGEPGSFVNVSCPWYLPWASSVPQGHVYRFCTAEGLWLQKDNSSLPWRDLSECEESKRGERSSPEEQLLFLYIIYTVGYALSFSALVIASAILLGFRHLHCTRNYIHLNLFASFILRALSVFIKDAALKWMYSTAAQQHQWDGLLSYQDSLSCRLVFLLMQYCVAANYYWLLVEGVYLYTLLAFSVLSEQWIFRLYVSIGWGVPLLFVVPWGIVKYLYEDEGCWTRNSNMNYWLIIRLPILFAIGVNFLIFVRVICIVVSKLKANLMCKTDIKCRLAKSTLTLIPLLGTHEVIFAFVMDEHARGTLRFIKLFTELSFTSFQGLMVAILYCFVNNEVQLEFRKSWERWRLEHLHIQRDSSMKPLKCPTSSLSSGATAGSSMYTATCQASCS
Structure (SMILES),EC50 (hGLP1R; [2]),EC50 (hGIPR; [3]),EC50 (hNPY2R; [4]),solubility at 2 h [1],EC50 (hNPY2R; [5]),"EC50 (hGLP1R; 100% human plasma, read-out: hGLP1R 100% hP)","EC50 (hGIPR; 100% human plasma, read-out: hGIPR 100% hP)"
"CC[C@H](C)[C@H](NC(=O)[C@H](CO)NC(=O)[C@H](Cc1ccc(O)cc1)NC(=O)[C@H](CC(=O)O)NC(=O)[C@H](CO)NC(=O)[C@@H](NC(=O)[C@H](Cc1ccccc1)NC(=O)[C@@H](NC(=O)CNC(=O)[C@H](CCC(=O)O)NC(=O)C(C)(C)NC(=O)[C@@H](N)Cc1ccc(O)cc1)[C@@H](C)O)[C@@H](C)O)C(=O)N[C@@H](CC(C)C)C(=O)N[C@@H](CC(C)C)C(=O)N[C@@H](CCC(=O)O)C(=O)N[C@@H](CCCCN)C(=O)N[C@@H](CCC(N)=O)C(=O)N[C@@H](C)C(=O)N[C@@H](CCC(N)=O)C(=O)NC(C)(C)C(=O)N[C@@H](C)C(=O)N[C@@H](Cc1ccccc1)C(=O)N[C@H](C(=O)N[C@@H](CCCNC(=N)N)C(=O)N[C@@H](Cc1c[nH]cn1)C(=O)N[C@@H](CC(C)C)C(=O)N[C@H](C(=O)N[C@@H](CC(N)=O)C(=O)N[C@@H](CCCCNC(=O)CC[C@H](NC(=O)CC[C@H](NC(=O)CC[C@H](NC(=O)CC[C@H](NC(=O)CC[C@H](NC(=O)CCCCCCCCCCCCCCCCC(=O)O)C(=O)O)C(=O)O)C(=O)O)C(=O)O)C(=O)O)C(=O)NC(C)(C)C(=O)N[C@H](C(=O)N[C@@H](CCCNC(=N)N)C(=O)N[C@@H](CCC(N)=O)C(=O)N[C@@H](CCCNC(=N)N)C(=O)N[C@@H](Cc1ccc(O)cc1)C(N)=O)[C@@H](C)O)[C@@H](C)CC)C(C)C [Compound 122, Y-Aib-E-G-T-F-T-S-D-Y-S-I-L-L-E-K-Q-A-Q-Aib-A-F-V-R-H-L-I-N-K(1,3)-Aib-T-R-Q-R-Y-NH2.C18DA-gGlu-gGlu-gGlu-gGlu-gGlu(1,2)]",0.3 nM,0.1 nM,60.8 nM,3.8 mg/mL,,,
"CC[C@H](C)[C@H](NC(=O)[C@H](CC(C)C)NC(=O)[C@H](Cc1c[nH]cn1)NC(=O)[C@H](CCCNC(=N)N)NC(=O)[C@@H](NC(=O)[C@H](Cc1ccccc1)NC(=O)[C@H](CCC(=O)O)NC(=O)C(C)(C)NC(=O)[C@H](CCC(N)=O)NC(=O)[C@H](C)NC(=O)[C@H](CCC(N)=O)NC(=O)[C@H](CCCCN)NC(=O)[C@H](CC(=O)O)NC(=O)[C@H](CC(C)C)NC(=O)C(C)(C)NC(=O)[C@@H](NC(=O)[C@H](CO)NC(=O)[C@H](Cc1ccc(O)cc1)NC(=O)[C@H](CC(=O)O)NC(=O)[C@H](CO)NC(=O)[C@@H](NC(=O)[C@H](Cc1ccccc1)NC(=O)[C@@H](NC(=O)CNC(=O)[C@H](CCC(=O)O)NC(=O)C(C)(C)NC(=O)[C@@H](N)Cc1ccc(O)cc1)[C@@H](C)O)[C@@H](C)O)[C@@H](C)CC)C(C)C)C(=O)N[C@@H](CC(N)=O)C(=O)N[C@@H](CCCCNC(=O)[C@@H](N)CCCCNC(=O)CC[C@H](NC(=O)CC[C@H](NC(=O)CC[C@H](NC(=O)CC[C@H](NC(=O)CC[C@H](NC(=O)CC[C@H](NC(=O)CCCCCCCCCCCCCCCCC(=O)O)C(=O)O)C(=O)O)C(=O)O)C(=O)O)C(=O)O)C(=O)O)C(=O)NC(C)(C)C(=O)N[C@H](C(=O)N[C@@H](CCCNC(=N)N)C(=O)N[C@@H](CCC(N)=O)C(=O)N[C@@H](CCCNC(=N)N)C(=O)N[C@@H](Cc1ccc(O)cc1)C(N)=O)[C@@H](C)O [Compound 131, Y-Aib-E-G-T-F-T-S-D-Y-S-I-Aib-L-D-K-Q-A-Q-Aib-E-F-V-R-H-L-I-N-K(1,3)-Aib-T-R-Q-R-Y-NH2.C18DA-gGlu-gGlu-gGlu-gGlu-gGlu-gGlu-eLys(1,2)]",0.1 nM,0.3 nM,17.5 nM,9 mg/mL,,,
"CC[C@H](C)[C@H](NC(=O)[C@H](CC(C)C)NC(=O)[C@H](Cc1c[nH]cn1)NC(=O)[C@H](CCCNC(=N)N)NC(=O)[C@@H](NC(=O)[C@H](Cc1ccccc1)NC(=O)[C@H](C)NC(=O)C(C)(C)NC(=O)[C@H](CCC(N)=O)NC(=O)[C@H](C)NC(=O)[C@H](CCC(N)=O)NC(=O)[C@H](CCCCN)NC(=O)[C@H](CCC(=O)O)NC(=O)[C@H](CC(C)C)NC(=O)C(C)(C)NC(=O)[C@@H](NC(=O)[C@H](CO)NC(=O)[C@H](Cc1ccc(O)cc1)NC(=O)[C@H](CC(=O)O)NC(=O)[C@H](CO)NC(=O)[C@@H](NC(=O)[C@H](Cc1ccccc1)NC(=O)[C@@H](NC(=O)CNC(=O)[C@H](CCC(=O)O)NC(=O)C(C)(C)NC(=O)[C@@H](N)Cc1ccc(O)cc1)[C@@H](C)O)[C@@H](C)O)[C@@H](C)CC)C(C)C)C(=O)N[C@@H](CC(N)=O)C(=O)N[C@@H](CCCCNC(=O)[C@@H](N)CCCCNC(=O)CC[C@H](NC(=O)CC[C@H](NC(=O)CC[C@H](NC(=O)CC[C@H](NC(=O)CC[C@H](NC(=O)CC[C@H](NC(=O)CCCCCCCCCCCCCCCCC(=O)O)C(=O)O)C(=O)O)C(=O)O)C(=O)O)C(=O)O)C(=O)O)C(=O)NC(C)(C)C(=O)N[C@H](C(=O)N[C@@H](CCCNC(=N)N)C(=O)N[C@@H](CCC(N)=O)C(=O)N[C@@H](CCCNC(=N)N)CC(=O)N[C@@H](Cc1ccc(O)cc1)C(N)=O)[C@@H](C)O [Compound 146, Y-Aib-E-G-T-F-T-S-D-Y-S-I-Aib-L-E-K-Q-A-Q-Aib-A-F-V-R-H-L-I-N-K(1,3)-Aib-T-R-Q-bhArg-Y-NH2.C18DA-gGlu-gGlu-gGlu-gGlu-gGlu-gGlu-eLys(1,2)]",1 nM,0.2 nM,,5 mg/mL,89.8 nM,,
"CC[C@H](C)[C@H](NC(=O)[C@H](CC(C)C)NC(=O)[C@H](Cc1c[nH]cn1)NC(=O)[C@H](CCCNC(=N)N)NC(=O)[C@@H](NC(=O)[C@H](Cc1ccccc1)NC(=O)[C@H](C)NC(=O)[C@H](Cc1ccc(O)cc1)NC(=O)[C@H](CCC(N)=O)NC(=O)[C@H](C)NC(=O)[C@H](CCC(N)=O)NC(=O)[C@H](CCCCN)NC(=O)[C@H](CCC(=O)O)NC(=O)[C@H](CC(C)C)NC(=O)C(C)(C)NC(=O)[C@@H](NC(=O)[C@H](CO)NC(=O)[C@H](Cc1ccc(O)cc1)NC(=O)[C@H](CC(=O)O)NC(=O)[C@H](CO)NC(=O)[C@@H](NC(=O)[C@H](Cc1ccccc1)NC(=O)[C@@H](NC(=O)CNC(=O)[C@H](CCC(=O)O)NC(=O)C(C)(C)NC(=O)[C@@H](N)Cc1ccc(O)cc1)[C@@H](C)O)[C@@H](C)O)[C@@H](C)CC)C(C)C)C(=O)N[C@@H](CC(N)=O)C(=O)N[C@@H](CCCCNC(=O)[C@@H](N)CCCCNC(=O)CC[C@H](NC(=O)CC[C@H](NC(=O)CC[C@H](NC(=O)CC[C@H](NC(=O)CC[C@H](NC(=O)CC[C@H](NC(=O)CCCCCCCCCCCCCCCCC(=O)O)C(=O)O)C(=O)O)C(=O)O)C(=O)O)C(=O)O)C(=O)O)C(=O)NC(C)(C)C(=O)N[C@H](C(=O)N[C@@H](CCCNC(=N)N)C(=O)N[C@@H](CCC(N)=O)C(=O)N[C@@H](CCCNC(=N)N)C(=O)N[C@@H](Cc1ccc(O)cc1)C(N)=O)[C@@H](C)O [Compound 151, Y-Aib-E-G-T-F-T-S-D-Y-S-I-Aib-L-E-K-Q-A-Q-Y-A-F-V-R-H-L-I-N-K(1,3)-Aib-T-R-Q-R-Y-NH2.C18DA-gGlu-gGlu-gGlu-gGlu-gGlu-gGlu-eLys(1,2)]",,0.5 nM,,10.3 mg/mL,89.8 nM,7 nM,5.6 nM
"CC[C@H](C)[C@H](NC(=O)[C@H](CC(C)C)NC(=O)[C@H](Cc1ccc(O)cc1)NC(=O)[C@H](CCCNC(=N)N)NC(=O)[C@@H](NC(=O)[C@H](Cc1ccccc1)NC(=O)[C@H](C)NC(=O)C(C)(C)NC(=O)[C@H](CCC(N)=O)NC(=O)[C@H](C)NC(=O)[C@H](CCC(N)=O)NC(=O)[C@H](CCCCN)NC(=O)[C@H](CC(=O)O)NC(=O)[C@H](CC(C)C)NC(=O)C(C)(C)NC(=O)[C@@H](NC(=O)[C@H](CO)NC(=O)[C@H](Cc1ccc(O)cc1)NC(=O)[C@H](CC(=O)O)NC(=O)[C@H](CO)NC(=O)[C@@H](NC(=O)[C@H](Cc1ccccc1)NC(=O)[C@@H](NC(=O)CNC(=O)[C@H](CCC(=O)O)NC(=O)C(C)(C)NC(=O)[C@@H](N)Cc1ccc(O)cc1)[C@@H](C)O)[C@@H](C)O)[C@@H](C)CC)C(C)C)C(=O)N[C@@H](CC(N)=O)C(=O)N[C@@H](CCCCNC(=O)[C@@H](N)CCCCNC(=O)CC[C@H](NC(=O)CC[C@H](NC(=O)CC[C@H](NC(=O)CC[C@H](NC(=O)CC[C@H](NC(=O)CC[C@H](NC(=O)CCCCCCCCCCCCCCCCC(=O)O)C(=O)O)C(=O)O)C(=O)O)C(=O)O)C(=O)O)C(=O)O)C(=O)NC(C)(C)C(=O)N[C@H](C(=O)N[C@@H](CCCNC(=N)N)C(=O)N[C@@H](CCC(N)=O)C(=O)N[C@@H](CCCNC(=N)N)C(=O)N[C@@H](Cc1ccc(O)cc1)C(N)=O)[C@@H](C)O [Compound 153, Y-Aib-E-G-T-F-T-S-D-Y-S-I-Aib-L-D-K-Q-A-Q-Aib-A-F-V-R-Y-L-I-N-K(1,3)-Aib-T-R-Q-R-Y-NH2.C18DA-gGlu-gGlu-gGlu-gGlu-gGlu-gGlu-eLys(1,2)]",0.1 nM,0.1 nM,40 nM,8.2 mg/mL,,,

# — US20250382344A1, “Soluble GLP1/GIP/NPY2 Receptor Triple Agonists” (Boehringer Ingelheim International GmH, priority 2024, published 2025)
